{"source": "paper PMC6687522", "about": "(Drug development research, 2019)", "molecular_target": "T1, human neutrophil elastase (HNE) (Homo sapiens, UniProt P08246)", "T1 sequence (P08246 30-267)": "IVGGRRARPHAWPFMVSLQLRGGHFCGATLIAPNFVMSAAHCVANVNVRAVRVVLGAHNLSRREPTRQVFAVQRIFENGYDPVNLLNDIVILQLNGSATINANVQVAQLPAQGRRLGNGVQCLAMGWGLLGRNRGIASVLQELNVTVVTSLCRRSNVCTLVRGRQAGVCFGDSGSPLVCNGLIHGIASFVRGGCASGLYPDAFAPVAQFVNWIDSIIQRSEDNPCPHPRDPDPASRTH", "assay": "HNE inhibition assay", "format": "biochemical", "data": [{"molecule": "Cc1cccc(C(=O)n2c(C#N)cc3cccnc32)c1", "note": "[Compound 2d, 1-(3-Methylbenzoyl)-1H-pyrrolo[2,3-b]pyridine-2-carbonitrile]", "values": [{"measurement": "IC50", "value": "3500 ± 1200", "unit": "nM"}]}, {"molecule": "Cc1cccc(C(=O)n2c(C)c(C#N)c3cccnc32)c1", "note": "[Compound 2e, 2-Methyl-1-(3-methylbenzoyl)-1H-pyrrolo[2,3-b]pyridine-3-carbonitrile]", "values": [{"measurement": "IC50", "value": "10800 ± 2200", "unit": "nM"}]}, {"molecule": "Cc1cccc(C(=O)n2cc(C#N)c3cc(Br)cnc32)c1", "note": "[Compound 7a, 5-Bromo-1-(3-methylbenzoyl)-1H-pyrrolo[2,3-b]pyridine-3-carbonitrile]", "values": [{"measurement": "IC50", "value": "51 ± 14", "unit": "nM"}, {"measurement": "fold more potent than the 5-chloro derivative 7b", "setting": "ratio of HNE IC50 values", "value": "about 3 fold"}]}, {"molecule": "Cc1cccc(C(=O)n2cc(C#N)c3cc(Cl)cnc32)c1", "note": "[Compound 7b, 5-Chloro-1-(3-methylbenzoyl)-1H-pyrrolo[2,3-b]pyridine-3-carbonitrile]", "values": [{"measurement": "IC50", "value": "160 ± 50", "unit": "nM"}]}, {"molecule": "Cc1cccc(C(=O)n2cc(C#N)c3cc([N+](=O)[O-])cnc32)c1", "note": "[Compound 7c, 1-(3-Methylbenzoyl)-5-nitro-1H-pyrrolo[2,3-b]pyridine-3-carbonitrile]", "values": [{"measurement": "IC50", "value": "400 ± 110", "unit": "nM"}, {"measurement": "fold less potent than the 5-chloro derivative 7b", "setting": "ratio of HNE IC50 values", "value": "about 2 fold"}]}, {"molecule": "Cc1cccc(C(=O)n2cc(C#N)c3cc(-c4ccccc4)cnc32)c1", "note": "[Compound 14a, 1-(3-Methylbenzoyl)-5-phenyl-1H-pyrrolo[2,3-b]pyridine-3-carbonitrile]", "values": [{"measurement": "IC50", "value": "50 ± 20", "unit": "nM"}]}, {"molecule": "Cc1cccc(C(=O)n2cc(C#N)c3cc(-c4cccc(C(F)(F)F)c4)cnc32)c1", "note": "[Compound 14b, 1-(3-Methylbenzoyl)-5-(3-(trifluoromethyl)phenyl)-1H-pyrrolo[2,3-b]pyridine-3-carbonitrile]", "values": [{"measurement": "IC50", "value": "180 ± 70", "unit": "nM"}]}, {"molecule": "Cc1cccc(C(=O)n2cc(C#N)c3cc(-c4cccc(C)c4)cnc32)c1", "note": "[Compound 14c, 1-(3-Methylbenzoyl)-5-(m-tolyl)-1H-pyrrolo[2,3-b]pyridine-3-carbonitrile]", "values": [{"measurement": "IC50", "value": "130 ± 40", "unit": "nM"}]}, {"molecule": "COc1cccc(-c2cnc3c(c2)c(C#N)cn3C(=O)c2cccc(C)c2)c1", "note": "[Compound 14d, 5-(3-Methoxyphenyl)-1-(3-methylbenzoyl)-1H-pyrrolo[2,3-b]pyridine-3-carbonitrile]", "values": [{"measurement": "IC50", "value": "70 ± 15", "unit": "nM"}]}, {"molecule": "COc1ccc2cc(-c3cnc4c(c3)c(C#N)cn4C(=O)c3cccc(C)c3)ccc2c1", "note": "[Compound 14e, 5-(6-Methoxynaphthalen-2-yl)-1-(3-methylbenzoyl)-1H-pyrrolo[2,3-b]pyridine-3-carbonitrile]", "values": [{"measurement": "IC50", "value": "1600 ± 330", "unit": "nM"}]}, {"molecule": "Cc1cccc(C(=O)n2cc(C#N)c3cc(-c4ccsc4)cnc32)c1", "note": "[Compound 14f, 1-(3-methylbenzoyl)-5-(thiophen-3-yl)-1H-pyrrolo[2,3-b]pyridine-3-carbonitrile]", "values": [{"measurement": "IC50", "value": "42 ± 15", "unit": "nM"}]}, {"molecule": "Cc1cccc(C(=O)n2cc(C#N)c3cc(-c4cccnc4)cnc32)c1", "note": "[Compound 14g, 1-(3-methylbenzoyl)-5-(pyridin-3-yl)-1H-pyrrolo[2,3-b]pyridine-3-carbonitrile]", "values": [{"measurement": "IC50", "value": "15 ± 4", "unit": "nM"}]}]}
